Data on 19 molecules can be found in patent US8940768B2, “Antifungal triazole derivatives” (Daewoong Pharmaceutical Co., Ltd., priority 2010, dated 2015).

Molecules are shown by their SMILES. Values after ≈ are worked out from the molar mass of the structure shown. Read-outs that look alike come from different tables or passages of the source.

What all share (type): cell-based
One experiment has as its system Candida albicans. Kind of experiment: in vitro antifungal activity (MIC80), Candida albicans. To be noted: 80% growth inhibition vs negative control, RPMI 1640, read 24 hrs after application. On the procedure: (§1) The compounds of the present invention were evaluated for inhibitory activity against yeast molds including Candida albicans, Candida glabrata, Candida krusei, Candida tropicalis, Candida parapsilosis, and Cryptococcus neoformans, and filamentous fungi including Aspergillus fumigatus, Trichophyton mentagrophytes (obtained from KCTC (Korean Collection for Type Cultures), and Trichophyton rubrum (obtained from KCCM (Korean Culture Center of Microorganisms). All the strains, but Trichophyton mentagrophytes and Trichophyton rubrum, were purchased from the ATCC (American Type Culture Collection).
(§2) Of the strains used in this test, Candida albicans, Candida glabrata, Candida krusei, Candida tropicalis, Candida parapsilosis, Trichophyton mentagrophytes and Trichophyton rubrum were inoculated into sabouraud dextrose agars (Difco, BD-0109), Cryptococcus neoformans into a yeast mold agar (YM agar, Difco, 271210), and Aspergillus fumigatus into a malt extract agar (Difco, 211220), before incubation at 35° C. for two to ten days.
(§3) From the agars on which the yeast molds were grown, single colonies were picked up, and each was sufficiently suspended in 5 mL of already prepared, 0.85% sterile saline. After correction of the absorbance to 0.108 at 530 nm, each of the suspensions was diluted to a ratio of 1:50 in an RPMI (Roswell park memorial institute) 1640 medium and then to a ratio of 1:20 to prepare an inoculum having a cell density of from 1.0×10^3 to 5.0×10^3CFU/mL. The cell density was adjusted into […]˜5.0×10^4 CFU/mL for Aspergillus fumigates and 0.4×10^4˜5.0×10^4 CFU/mL for both Trichophyton mentagrophytes and Trichophyton rubrum.
(§4) The antifungal agent samples were prepared by diluting the active compounds in an RPMI 1640 medium to a serial density of from 0.0156 to 32 μg/mL. In this context, dimethylsulfoxide (DMSO) was used as an excipient at a final concentration of 1% (v/v). The serial dilutions were aliquoted at a volume of 0.1 mL and applied to 0.1 mL of the aliquots of each inoculum, followed by incubation.
(§5) With the naked eyes, an observation was made of all of the yeast molds, but Cryptococcus neoformans 24 hrs after the application, Cryptococcus neoformans and Aspergillus fumigatus 48 hrs after the application, and Trichophyton mentagrophytes and Trichophyton rubrum five days after the application to examine whether the fungi grew or not. In addition, Alamarblue™ as used to determine the concentrations of the compounds of the present invention at which the growth of the microorganisms was 80% inhibited compared to that of the negative control. All experiments were performed in duplicate for each of the test concentration groups.

The next experiment has as its system Aspergillus fumigatus. Kind of experiment: in vitro antifungal activity (MIC80), Aspergillus fumigatus. As to conditions: 80% growth inhibition vs negative control, RPMI 1640, read 48 hrs after application. The protocol: as §1, §2, §3, §4, §5
In another experiment the test system is Candida glabrata. Kind of experiment: in vitro antifungal activity (MIC80), Candida glabrata. As to conditions: Nakaseomyces glabratus, 24 h, read-out: Antifungal Activity (MIC80) C. grabrata. On the procedure:
as §1, §2, §3, §4, §5

The subject of a further experiment is Candida krusei. In words: in vitro antifungal activity (MIC80), Candida krusei. To be noted: Pichia kudriavzevii; 80% growth inhibition vs negative control; RPMI 1640; read 24 hrs after application; read-out: Antifungal Activity (MIC80) C. krusei. The protocol: as §1, §2, §3, §4, §5
A further experiment deals with Candida tropicalis. In words: in vitro antifungal activity (MIC80), Candida tropicalis. To be noted: 80% growth inhibition vs negative control, RPMI 1640, read 24 hrs after application, read-out: Antifungal Activity (MIC80) C. tropicalis. The protocol: as §1, §2, §3, §4, §5
A further experiment deals with Candida parapsilosis. In words: in vitro antifungal activity (MIC80), Candida parapsilosis. To be noted: Lodderomyces parapsilosis; 80% growth inhibition vs negative control; RPMI 1640; read 24 hrs after application; read-out: Antifungal Activity (MIC80) C. parapsilosis. On the procedure: as §1, §2, §3, §4, §5
The test system of experiment [1] is Trichophyton mentagrophytes. Kind of experiment: in vitro antifungal activity (MIC80), Trichophyton mentagrophytes. To be noted: 120 h, 80% growth inhibition vs negative control, RPMI 1640, read five days after application. On the procedure: as §1, §2, §3, §4, §5
The subject of the next experiment is Trichophyton rubrum. In words: in vitro antifungal activity (MIC80), Trichophyton rubrum. As to conditions: 120 h, 80% growth inhibition vs negative control, RPMI 1640, read five days after application. The protocol:
as §1, §2, §3, §4, §5

Where [2] appears, read: Table 1, read-out: Antifungal Activity (MIC80) C. albicans.
Setting [3] is: Table 2, read-out: Antifungal Activity (MIC80) Candida albicans.

Consider `C[C@@H](N1CCC(Oc2ccc(Cl)cc2)CC1)[C@](O)(Cn1cncn1)c1ccc(F)cc1F` [Example 7, (2R,3R)-3-(4-(4-chlorophenoxy)piperidin-1-yl)-2-(2,4-difluorophenyl)-1-(1H-1,2,4-triazol-1-yl)butan-2-ol], for which the MIC80 was at most 0.015 µg/mL in the experiment with Candida albicans (setting [2]) and at most 0.125 µg/mL against Aspergillus fumigatus.
The matching figures for `C[C@@H](N1CCC(Oc2ccc(C(F)(F)F)cc2)CC1)[C@](O)(Cn1cncn1)c1ccc(F)cc1F` [Example 13, (2R,3R)-2-(2,4-difluorophenyl)-1-(1H-1,2,4-triazol-1-yl)-3-(4-(4-(trifluoromethyl)phenoxy)piperidin-1-yl)butan-2-ol]: at most 0.015 µg/mL and 1 µg/mL (≈ 2.01 µM).
For `C[C@@H](N1CCC(Nc2ccc(F)cn2)CC1)[C@](O)(Cn1cncn1)c1ccc(F)cc1F` [Example 58, (2R,3R)-2-(2,4-difluorophenyl)-3-(4-((5-fluoropyridin-2-yl)amino)piperidin-1-yl)-1-(1H-1,2,4-triazol-1-yl)butan-2-ol], the MIC80 in the experiment on Candida albicans (setting [2]) is at most 0.015 µg/mL; with Candida glabrata, 1 µg/mL (≈ 2.24 µM); with Candida krusei, 0.062 µg/mL (≈ 0.139 µM); with Candida tropicalis it was 0.125 µg/mL (≈ 0.28 µM); in the experiment with Candida parapsilosis, 0.062 µg/mL (≈ 0.139 µM); against Aspergillus fumigatus, 0.125 µg/mL (≈ 0.28 µM). For the same molecule, the MIC80 (in experiment [1]; against Trichophyton rubrum) was at most 0.125 µg/mL throughout.
Take `C[C@@H](N1CCC(Nc2ncc(F)cn2)CC1)[C@](O)(Cn1cncn1)c1ccc(F)cc1F` [Example 63, (2R,3R)-2-(2,4-difluorophenyl)-3-(4-((5-fluoropyrimidin-2-yl)amino)piperidin-1-yl)-1-(1H-1,2,4-triazol-1-yl)butan-2-ol]: the MIC80 in the experiment with Candida albicans (setting [2]) is at most 0.015 µg/mL; with Candida glabrata, 1 µg/mL (≈ 2.23 µM); with Candida krusei it was at most 0.062 µg/mL; in the experiment with Aspergillus fumigatus, 0.25 µg/mL (≈ 0.559 µM); in experiment [1], at most 0.004 µg/mL; against Trichophyton rubrum, 0.015 µg/mL (≈ 0.0335 µM).
As for `C[C@@H](OC1CCN(c2ncc(F)cn2)CC1)[C@](O)(Cn1cncn1)c1ccc(F)cc1F` [Example 118, (2R,3R)-2-(2,4-difluorophenyl)-3-((1-(5-fluoropyrimidin-2-yl)piperidin-4-yl)oxy)-1-(1H-1,2,4-triazol-1-yl)butan-2-ol], the MIC80 in the experiment on Candida albicans (setting [3]) was at most 0.015 µg/mL.
The same measure, in the same setting: to `C[C@@H](OC1CCN(c2ncc(Br)cn2)CC1)[C@](O)(Cn1cncn1)c1ccc(F)cc1F` [Example 120, (2R,3R)-3-((1-(5-bromopyrimidin-2-yl)piperidin-4-yl)oxy)-2-(2,4-difluorophenyl)-1-(1H-1,2,4-triazol-1-yl)butan-2-ol] belongs at most 0.015 µg/mL; to `C[C@@H](NC1CCN(c2ccccc2)CC1)[C@](O)(Cn1cncn1)c1ccc(F)cc1F` [Example 123, (2R,3R)-2-(2,4-difluorophenyl)-3-((1-phenylpiperidin-4-yl)amino)-1-(1H-1,2,4-triazol-1-yl)butan-2-ol], at most 0.015 µg/mL.
On the same count and under the same terms, to `C[C@@H](NC1CCN(c2ccc(C(F)(F)F)cc2)CC1)[C@](O)(Cn1cncn1)c1ccc(F)cc1F` [Example 134, (2R,3R)-2-(2,4-difluorophenyl)-1-(1H-1,2,4-triazol-1-yl)-3-((1-(4-(trifluoromethyl)phenyl)piperidin-4-yl)amino)butan-2-ol] belongs at most 0.015 µg/mL; to `C[C@@H](NC1CCN(c2ccc(C#N)cc2)CC1)[C@](O)(Cn1cncn1)c1ccc(F)cc1F` [Example 137, 4-(4-(((2R,3R)-3-(2,4-difluorophenyl)-3-hydroxy-4-(1H-1,2,4-triazol-1-yl)butan-2-yl)amino)piperidin-1-yl)benzonitrile], at most 0.015 µg/mL; to `C[C@@H](NC1CCN(c2ccc(F)cn2)CC1)[C@](O)(Cn1cncn1)c1ccc(F)cc1F` [Example 146, (2R,3R)-2-(2,4-difluorophenyl)-3-((1-(5-fluoropyridin-2-yl)piperidin-4-yl)amino)-1-(1H-1,2,4-triazol-1-yl)butan-2-ol], at most 0.015 µg/mL.
Same read-out and setting: under `C[C@@H](NC1CCN(c2ccc(Cl)cn2)CC1)[C@](O)(Cn1cncn1)c1ccc(F)cc1F` [Example 147, (2R,3R)-3-((1-(5-chloropyridin-2-yl)piperidin-4-yl)amino)-2-(2,4-difluorophenyl)-1-(1H-1,2,4-triazol-1-yl)butan-2-ol] stands at most 0.015 µg/mL.
As for `Cc1cc(C(F)(F)F)cnc1N1CCC(N[C@H](C)[C@](O)(Cn2cncn2)c2ccc(F)cc2F)CC1` [Example 148, (2R,3R)-2-(2,4-difluorophenyl)-3-((1-(3-methyl-5-(trifluoromethyl)pyridin-2-yl)piperidin-4-yl)amino)-1-(1H-1,2,4-triazol-1-yl)butan-2-ol], the MIC80 with Candida albicans (setting [2]) is at most 0.015 µg/mL; with Candida glabrata, 0.25 µg/mL (≈ 0.49 µM); in the experiment on Candida krusei it was at most 0.062 µg/mL; against Aspergillus fumigatus, 1 µg/mL (≈ 1.96 µM).
On to `C[C@@H](NC1CCN(c2ncccn2)CC1)[C@](O)(Cn1cncn1)c1ccc(F)cc1F` [Example 149, (2R,3R)-2-(2,4-difluorophenyl)-3-((1-(pyrimidin-2-yl)piperidin-4-yl)amino)-1-(1H-1,2,4-triazol-1-yl)butan-2-ol], for which, in the experiment with Candida albicans (setting [3]), the MIC80 is at most 0.015 µg/mL.
Take `C[C@@H](NC1CCN(c2ncc(F)cn2)CC1)[C@](O)(Cn1cncn1)c1ccc(F)cc1F` [Example 151, (2R,3R)-2-(2,4-difluorophenyl)-3-((1-(5-fluoropyrimidin-2-yl)piperidin-4-yl)-amino)-1-(1H-1,2,4-triazol-1-yl)butan-2-ol]: the MIC80 was at most 0.015 µg/mL in the experiment on Candida albicans (setting [2]); 1 µg/mL (≈ 2.23 µM) in the experiment on Candida glabrata; 0.25 µg/mL (≈ 0.559 µM) with Candida krusei; 0.25 µg/mL (≈ 0.559 µM) in the experiment with Candida tropicalis; 0.125 µg/mL (≈ 0.279 µM) in the experiment with Candida parapsilosis; 1 µg/mL (≈ 2.23 µM) against Aspergillus fumigatus. For the same molecule, the MIC80 in experiment [1] was at most 0.004 µg/mL; with Trichophyton rubrum, 0.015 µg/mL (≈ 0.0335 µM).
As for `C[C@@H](N(C)C1CCN(c2ccccc2)CC1)[C@](O)(Cn1cncn1)c1ccc(F)cc1F` [Example 155, (2R,3R)-2-(2,4-difluorophenyl)-3-(methyl(1-phenylpiperidin-4-yl)amino)-1-(1H-1,2,4-triazol-1-yl)butan-2-ol], in the experiment with Candida albicans (setting [3]), the MIC80 was at most 0.015 µg/mL.
Turning to `C[C@@H](N(C)C1CCN(c2ccc(F)cc2)CC1)[C@](O)(Cn1cncn1)c1ccc(F)cc1F` [Example 158, (2R,3R)-2-(2,4-difluorophenyl)-3-((1-(4-fluorophenyl)piperidin-4-yl)(methyl)amino)-1-(1H-1,2,4-triazol-1-yl)butan-2-ol], the MIC80 in the experiment with Candida albicans (setting [3]) was at most 0.015 µg/mL.
As to `C[C@@H](N(C)C1CCN(c2ccc(Cl)cc2)CC1)[C@](O)(Cn1cncn1)c1ccc(F)cc1F` [Example 161, (2R,3R)-3-((1-(4-chlorophenyl)piperidin-4-yl)(methyl)amino)-2-(2,4-difluorophenyl)-1-(1H-1,2,4-triazol-1-yl)butan-2-ol], the MIC80 with Candida albicans (setting [3]) is at most 0.015 µg/mL.
`C[C@@H](N(C)C1CCN(c2ccc(C(F)(F)F)cc2)CC1)[C@](O)(Cn1cncn1)c1ccc(F)cc1F` [Example 167, (2R,3R)-2-(2,4-difluorophenyl)-3-(methyl(1-(4-(trifluoromethyl)phenyl)piperidin-4-yl)amino)-1-(1H-1,2,4-triazol-1-yl)butan-2-ol]: the MIC80 with Candida albicans (setting [3]) was at most 0.015 µg/mL.
On the same count and under the same terms, under `C[C@@H](N(C)C1CCN(c2ccc(C#N)cc2)CC1)[C@](O)(Cn1cncn1)c1ccc(F)cc1F` [Example 170, 4-(4-(((2R,3R)-3-(2,4-difluorophenyl)-3-hydroxy-4-(1H-1,2,4-triazol-1-yl)butan-2-yl)(methyl)amino)piperidin-1-yl)benzonitrile] stands at most 0.015 µg/mL.
